One series relates to Frog Heart. As to the kind of experiment: Frog heart, adrenaline-induced contractions. As to conditions: for inhibition of adrenaline-induced contractions: 0.1 ml (40 μg), 0.2 ml (80 μg) and 0.4 ml (160 μg), adrenaline 40 μg/ml; for beta blocker activity (inference): overall inference from adrenalic response. As for the experimental part: Frog Heart Adrenaline: 40 μg/ml
Series [1] in a line: Clinical case studies of oral MK-7 (Examples 1-10). Format: in vivo, humans. An excerpt:
Examples 1-10 enumerate clinical case studies data and Examples 11 and 12 provide in vitro experiments.

For series [2] the following is noted: 50 gms natto per day with 865, 1295 or 1730 μg MK-7 per 100 g; cited from earlier work.
For series [3] the following is noted: cited from earlier work.
For series [4] the following is noted: cited from earlier work. The source holds these as a separate data set.
The conditions of series [5]: cited from earlier work. The source holds these as a separate data set.
The test system of series [6] is Guinea Pig ileum. As to the kind of experiment: Guinea pig ileum, histamine induced smooth muscle contraction. The conditions noted are these: dose 640 μg (1.6 ml); histamine 25 μg/ml. As for the experimental part: (§1) Muscle relaxant activity was evaluated of pure test samples PK and MK-4 with Frog Rectus Abdominus Muscle and Guinea Pig ileum.
(§2) To evaluate the effect of test samples on smooth muscle contraction induced by (a) Acetylcholine (Neurotransmitter) which acts on […] receptors, (b) Histamine that causes a transient rise of cytosolic calcium, which is mediated by H1 receptor coupling that triggers release of internal calcium stores and (c) Barium that enters the cell through a voltage dependent calcium channel and, either directly or indirectly, interacts with calmodulin.
(§3) Test Samples were PK-400 μg/ml and MK-4-400 μg/ml

The test system of series [7] is Frog Rectus Abdominus Muscle. The series is described as follows: Frog rectus abdominus muscle preparation, acetylcholine induced skeletal muscle contraction. As to conditions: for antagonism of contraction induced by acetylcholine (40 μg): dose of 400 μg; for activity on skeletal muscle contraction (inference): overall inference. As for the experimental part: as §1
B) Frog Rectus Abdominus Muscle Preparation
To evaluate the effect of test samples on skeletal muscle contraction induced by Acetylcholine (Neurotransmitter).
Acetylcholine: 100 mcg/ml
as §3

Series [8] has as its system Guinea Pig ileum. The series is described as follows: Guinea pig ileum, acetylcholine induced smooth muscle contraction. As to conditions: for inhibition of acetylcholine induced smooth muscle contraction: acetylcholine 50 μg/ml; for smooth muscle relaxant activity (inference): overall inference from guinea pig ileum data. The procedure: as §1, §2, §3
Series [9] relates to Guinea Pig ileum. As to the kind of experiment: Guinea pig ileum, barium chloride induced smooth muscle contraction. As to conditions: dose 640 μg (1.6 ml); barium chloride 1%. As for the experimental part: as §1, §2, §3
[10] abbreviates: Example 02: MK-7 p.o. every day.
Setting [11] is: Example 05: person, 100 μg per day.

Read-outs that look alike come from different tables or passages of the source.

On to `CC(C)NCC(O)COc1cccc2ccccc12` (stereo not drawn) [Propanolol], for which the “inhibition of adrenaline response” value with Frog Heart (reference competitive inhibitor of adrenaline, FIG. 6) is recorded as “found to inhibit adrenaline response”.

Turning to vitamin B12, the tingling and numbness entry in [1] (Example 02: vitamin B12 deficiency on Metformin, injections 500 μg over 2 weeks, MK-7 continued) is “significant relief”.

In the case of `CC(C)=CCC/C(C)=C/CC/C(C)=C/CC/C(C)=C/CC/C(C)=C/CC/C(C)=C/CC/C(C)=C/CC1=C(C)C(=O)c2ccccc2C1=O` [MK-7], the “serum MK-7 concentration and γ-carboxylated osteocalcin concentration” value in [2] is on record as “elevated parallel to the administered level”. For the same compound, in [3] (at 72 hrs), the “concentration relative to the peak value concentration (Cmax) achieved by PK” value is listed as above 50% and the detectability in circulation entry is “remains detectable”. Also, the half life in series [3] (in vivo) is 50 h. In series [4] (British women), the “serum MK-7 concentration (mean±SD)” value was 0.37 ± 0.20 ng/mL. In addition, in [4] (Japanese women in Hiroshima), the “serum MK-7 concentration (mean±SD)” value is 1.22 ± 1.85 ng/mL. Further, the “serum MK-7 concentration (mean±SD)” value in [4] (Japanese women in Tokyo) was 5.26 ± 6.13 ng/mL. For the same compound, in series [1] (Example 01: person, type 2 diabetes, MK-7 100 μg per day for 2 months), the “tingling, numbness and burning of feet” value is listed as “complete relief”. Further, the “skin hyper pigmentation of nape of neck” value in series [1] (Example 01: person, type 2 diabetes, MK-7 for one and a half years) is reported as “almost subsided”. In addition, the “energy levels and fatigue” value in series [1] (Example 02: MK-7 added to schedule) is “higher energy levels and less fatigue”. In [1] (setting [10]), the paper-money skin appearance entry is “much reduced”; the tingling and numbness entry is recorded as “reduced markedly”. Also, the “frequency of mild cramps” value in series [1] (Example 02: MK-7 p.o. every day, over the next four months (before: 2 to 3 times in a week)) is recorded as “one or two in a month”. In addition, the “severity and frequency of muscle cramps” value in series [1] (Example 02: person, type 2 diabetes, hypertension, MK-7 p.o. every day, over the next two weeks) is on record as “steadily decreased”. For the same compound, in series [1] (Example 03: person, 100 μg one tablet per day, after six months), the “cramps during night and day” value is “disappeared”. In addition, the “rough skin on both heels” value in [1] (Example 04: person, daily dose 200 μg, within 10-15 days) was “completely lost roughness and became smooth”. In [1] (setting [11]), the scalp hair-loss entry was “stopped distinctly” and the skin of feet result is given as “smoothness of skin of their feet, diminution of cracks in the feet”. Besides, in [1] (Example 05: person, p.o. 100 μg per day), the “hyper pigmentation and paper-money skin of lower limbs” value is on record as “gradually reduced to a bare minimum”. Further, the “frequency, duration and severity of leg cramps” value in [1] (Example 06: person, 100 μg two times a day) is on record as “decreased”. Besides, the skin lightening result in [1] (Example 07: 100 μg twice a day, another 3 months (6 months total)) is on record as “considerable lightening of the skin”. Moreover, in series [1] (Example 07: person, 100 μg twice a day, after 2 to 3 months), the “hyper pigmentation of face, arms and neck” value is listed as “decreased”. The nail growth entry in series [1] (Example 08: 200 μg per day, over 2 months) is given as “grows faster”. Moreover, in series [1] (Example 08: athlete, 200 μg per day, within 2 months), the “severity of cramps after marathon” value was “lowered”. For the same compound, the “residual neuropathy symptoms (tingling, numbness, paresthesiae, burning sensation)” value in series [1] (Example 09: diabetic, 100 μg per day, within 15 days) is reported as “disappears completely”. For the same compound, the “frequency of restless legs syndrome” value in series [1] (Example 10: 200 μg per day for 1 year (before: every night)) is reported as “once or twice a month”. Further, the restless legs syndrome entry in series [1] (Example 10: person, 200 μg per day, within 2 weeks) is recorded as “reduced considerably”. Besides, the “reduction (mid tertile)” value in series [5] (dietary intake 24 μg per day mid tertile vs 12 μg per day lower tertile) is recorded as 25%. Also, in series [5] (dietary intake 45 μg per day upper tertile vs 12 μg per day lower tertile, 10 years follow-up), the “reduction in CHD mortality and aortic calcification” value was 50%. Also, the “reduction in all cause mortality” value in [5] (dietary intake 45 μg per day upper tertile vs 12 μg per day lower tertile) was 25%.

Consider `CC1=C(C/C=C(\C)CCC[C@H](C)CCC[C@H](C)CCCC(C)C)C(=O)c2ccccc2C1=O` [PK, phylloquinone], for which, in the series with Guinea Pig ileum [6], the “inhibition of histamine induced smooth muscle contraction” value turned out to be 37.16%. Also, in series [3] (in vivo), the elimination half life was 1.5 h. In addition, the absorption from vegetables in series [3] (taken together with 30 g fat) is 10-15%; in series [3] (without concomitant fat intake), 5-10%. For the same compound, the “antagonism of contraction induced by acetylcholine (40 μg)” value in series [7] is listed as “not antagonized”. For the same compound, in [7], the “activity on skeletal muscle contraction (inference)” value was “failed to exhibit activity”. Besides, the “inhibition of adrenaline-induced contractions” value in the series on Frog Heart was “failed to inhibit”. The “beta blocker activity (inference)” value with Frog Heart is “do not exhibit beta blocker activity”. The “inhibition of acetylcholine induced smooth muscle contraction” value in the series on Guinea Pig ileum [8] (dose 320 μg (0.8 ml)) is on record as 38.46%; in the series with Guinea Pig ileum [8] (dose 640 μg (1.6 ml)), 46.15%. Also, the “smooth muscle relaxant activity (inference)” value in the series on Guinea Pig ileum [8] is “demonstrate a smooth muscle relaxant activity”. The “inhibition of barium chloride induces smooth muscle contraction” value with Guinea Pig ileum [9] is 31%.

As for `CC(C)=CCC/C(C)=C/CC/C(C)=C/CC/C(C)=C/CC1=C(C)C(=O)c2ccccc2C1=O` [MK-4, menatetrenone], the “inhibition of histamine induced smooth muscle contraction” value with Guinea Pig ileum [6] is given as 29.4%. In series [7], the “antagonism of contraction induced by acetylcholine (40 μg)” value is “not antagonized” and the “activity on skeletal muscle contraction (inference)” value is on record as “failed to exhibit activity”. Besides, in the series on Frog Heart, the “inhibition of adrenaline-induced contractions” value is given as “failed to inhibit” and the “beta blocker activity (inference)” value is listed as “do not exhibit beta blocker activity”. Besides, the “inhibition of acetylcholine induced smooth muscle contraction” value in the series with Guinea Pig ileum [8] (dose 80 μg (0.2 ml)) was 21.62%. The “inhibition of acetylcholine induced smooth muscle contraction” value with Guinea Pig ileum [8] (dose 160 μg (0.4 ml)) turned out to be 40%. The “inhibition of acetylcholine induced smooth muscle contraction” value with Guinea Pig ileum [8] (dose 320 μg (0.8 ml)) was found to be 81.81%. Moreover, the “smooth muscle relaxant activity (inference)” value in the series with Guinea Pig ileum [8] is “demonstrate a smooth muscle relaxant activity”. In addition, in the series on Guinea Pig ileum [9], the “inhibition of barium chloride induces smooth muscle contraction” value worked out at 29%.

Source of the values: patent US20100130618A1, “TREATMENT OF HUMAN DISEASE CONDITIONS AND DISORDERS USING VITAMIN K ANALOGUES AND DERIVATIVES” (priority 2007, published 2010).
